{"source": "patent US20240287089A1", "about": "“Preparation and Uses of 7-Azaindenoisoquinolines” (Purdue Research Foundation, priority 0001, published 2024)", "key": {"[1]": {"test_system": "RAJI lymphoma cells", "experiment": "MTS cell viability IC50 assay", "format": "cell-based", "settings": "72 h", "experimental": "Cytotoxicity Results in Raji Non-Hodgkin's Lymphoma Cells. MTS experiments were then conducted to test the anti-proliferative effects of 7-aza-8,9-methylenedioxyindenoisoquinolines in Raji cells. Cells were incubated at 2-2000 nM of each drug for 72 h, and cell viabilities were quantified using the MTS assay. […] This potency trend generally correlated with the western blot results, in which G106 and G108 […] show weaker Myc downregulation.\n(§1) MTS Cell Viability IC50 Assay. Drug solutions for MTS IC50 assays of suspension cell lines were made from DMSO stocks by serial-dilutions in 1×PBS (10010-031, Gibco). To set up treatments, drug solutions were plated in triplicates to 96-well tissue culture plates, to which cell-containing media was added to a total volume of 100 μL/well. 100%-viability controls were untreated cells. 2000 cells/well were plated for all suspension cell lines except 3000 cells/well for KMS-27 and 10000 cells/well for CHLA-32. Blanks were cell-free media. Drug treatments were maintained for 72 hr at 37° C. with 5% CO2. To quantify cells, CellTiter 96 AQueous MTS Reagent Powder (G1111, Promega) was dissolved and mixed with phenazine methosulfate (PMS, Sigma-Aldrich P9625) according to manufacturer's instructions. MTS/PMS mix ([…]) was added to treatment wells, 100%-viability control wells, and blank wells. Colors were developed at 37° C. with 5% CO2 for 4 h and absorbance at 490 nm was measured by BioTek Synergy 4 system. To obtain %-viability, A490 values were corrected by blank subtraction, normalized to 100%-viability control, and averaged. Average %-viabilities were plotted against drug dosages to obtain dose-response curves. […] For adherent cell lines, the MTS IC50 assays were conducted the same way as for suspension cell lines except for cell plating and drug treatment. For cell plating, 50 μL of 2000 cells were plated in triplicates to a 96-well tissue culture plate. Cells were allowed sufficient time to become adherent. Serial-diluted drug solutions were made the same way as in the MTS IC50 assays. To set up treatments, drug solutions were mixed with media to two-fold of the final concentrations, and 50 μL of such drug-media mix was then added to 50 μL of plated cells."}, "[2]": {"target": "human Topo1 (Homo sapiens (Human), UniProt P11387)", "sequence (P11387 whole entry)": "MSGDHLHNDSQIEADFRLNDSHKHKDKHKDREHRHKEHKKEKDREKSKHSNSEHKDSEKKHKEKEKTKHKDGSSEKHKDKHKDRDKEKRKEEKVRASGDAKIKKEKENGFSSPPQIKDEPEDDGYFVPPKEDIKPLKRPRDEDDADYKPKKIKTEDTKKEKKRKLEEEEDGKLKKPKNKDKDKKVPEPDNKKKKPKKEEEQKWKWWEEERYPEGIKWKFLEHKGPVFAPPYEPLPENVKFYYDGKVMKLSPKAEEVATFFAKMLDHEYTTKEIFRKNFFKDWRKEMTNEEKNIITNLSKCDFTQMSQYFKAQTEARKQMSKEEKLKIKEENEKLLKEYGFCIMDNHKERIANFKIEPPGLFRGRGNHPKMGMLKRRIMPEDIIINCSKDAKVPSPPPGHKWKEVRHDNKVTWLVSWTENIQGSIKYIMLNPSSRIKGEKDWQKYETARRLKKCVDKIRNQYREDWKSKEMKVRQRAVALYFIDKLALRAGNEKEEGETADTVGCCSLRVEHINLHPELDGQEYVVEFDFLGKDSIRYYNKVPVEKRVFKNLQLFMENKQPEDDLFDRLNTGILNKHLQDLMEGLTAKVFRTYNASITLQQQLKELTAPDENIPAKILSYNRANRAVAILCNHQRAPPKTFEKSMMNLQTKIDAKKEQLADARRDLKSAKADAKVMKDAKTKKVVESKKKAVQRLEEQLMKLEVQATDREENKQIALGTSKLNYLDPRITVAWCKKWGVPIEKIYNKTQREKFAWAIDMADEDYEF", "experiment": "Topo1-mediated DNA cleavage assay", "format": "biochemical", "settings": "10 μM", "experimental": "7-Aza-8,9-methylenedioxyindenoisoquinoline compounds were examined for inhibitory effects on Topol-mediated DNA relaxation (FIG. 11A), and for Topol poison effect using Topol-Mediated DNA Cleavage Assay (FIG. 11B).\nTopol-Mediated DNA Cleavage Assay. Human Topoisomerase I Assay Kit (TG1015-1A) from Topogen was used to examine the compounds for Topol poison effect. Assay was performed according to manufacturer's instructions. CPT at 10 μM was used as a positive control. […] Assay samples were incubated at 37° C. for 30 min followed by reaction termination with 10% SDS. This was followed by a 15 min Proteinase K digestion for 15 min at 37° C. to degrade Topo1 and a 1:1 volume chloroform:isoamyl alcohol DNA extraction. Samples were electrophoresed on a 1% agarose gel in TBE buffer for 2 h at 46 v. Both the agarose gel and buffer contained 0.5 μg/ml of ethidium bromide."}, "[3]": {"test_system": "Myc protein in MCF-7 breast cancer cells", "experiment": "Western blot of Myc protein level", "format": "cell-based", "settings": "MCF-7, 0.5, 1.0, 2.0 μM, 24 h", "experimental": "Western blot. G-quadruplex formed in the MYC promoter functions as a transcriptional silencer. To determine the effects of 7-aza-8,9-methylenedioxyindenosioquinolines on the MYC protein level, a western blotting experiment was carried out using MCF-7 breast cancer cells. Western blot experiments were conducted to examine the downregulation effects of 7-aza-8,9-methylenedioxyindenosioquinolines on Myc protein level (FIG. 5). MCF-7 breast cancer cells were incubated for 24 h at 0, 0.5, 1.0, and 2.0 μM of G-101-108.\nWestern Blotting. MCF-7 cells were grown and treated in 6-well tissue culture plates. After collection, cells were suspended in 140 μL lysis buffer containing 1× RIPA buffer, 1× Protease Inhibitor Cocktail (A32965, Thermo Scientific), 1× NuPAGE LDS Sample Buffer (NP0007, Invitrogen), and 1× Sample Reducing Agent (NP0009, Invitrogen). The cell lysates were heated to 75° C. for 10 min. After sonication, 8 μL of each sample was loaded on a 4-15% Mini-PROTEAN TGX gel (4561086, Bio-Rad). […] Myc and GAPDH were detected with 1:1000-diluted monoclonal anti-Myc antibody (5605S, Cell Signaling Technology) and 1:2000-diluted monoclonal anti-GAPDH antibody (5174S, Cell Signaling Technology), respectively. Primary antibodies were detected by anti-Rabbit IgG HRP-linked antibody (7074S, Cell Signaling Technology). […]"}, "[4]": {"experiment": "Stability in blood plasma", "settings": "human plasma, 37° C."}, "[5]": {"experiment": "Plasma protein binding by equilibrium dialysis", "settings": "human plasma"}, "[6]": {"experiment": "Stability in blood plasma", "settings": "mouse plasma, 37° C."}, "[7]": {"experiment": "Plasma protein binding by equilibrium dialysis", "settings": "mouse plasma"}, "[8]": {"test_system": "L-363", "experiment": "MTS GI50, Myc-dependent panel", "format": "cell-based", "settings": "Homo sapiens, L-363, 72 h", "experimental": "(§2) Cytotoxicity Results in Myc-dependent Cancer Cell Lines.\nas §1"}, "[9]": {"test_system": "SK-N-MC", "experiment": "MTS GI50, Myc-dependent panel", "format": "cell-based", "settings": "Homo sapiens, 72 h", "experimental": "as §2, §1"}, "[10]": {"test_system": "CHLA-32", "experiment": "MTS GI50, Myc-dependent panel", "format": "cell-based", "settings": "72 h", "experimental": "as §2, §1"}, "[11]": {"test_system": "MOLT-4", "experiment": "MTS GI50, Myc-dependent panel", "format": "cell-based", "settings": "Homo sapiens, MOLT-4, 72 h", "experimental": "as §2, §1"}, "[12]": {"test_system": "TC-32", "experiment": "MTS GI50, Myc-dependent panel", "format": "cell-based", "settings": "Homo sapiens, TC-32, 72 h", "experimental": "as §2, §1"}, "[13]": {"test_system": "MDA-MB-231", "experiment": "MTS GI50, Myc-dependent panel", "format": "cell-based", "settings": "Homo sapiens, MDA-MB-231, 72 h", "experimental": "as §2, §1"}, "[14]": {"test_system": "KMS-27", "experiment": "MTS GI50, Myc-dependent panel", "format": "cell-based", "settings": "KMS-27, 72 h", "experimental": "as §2, §1"}, "[15]": {"test_system": "RPMI-8226", "experiment": "MTS GI50, Myc-dependent panel", "format": "cell-based", "settings": "Homo sapiens, RPMI-8226, 72 h", "experimental": "as §2, §1"}, "[16]": {"test_system": "THP-1", "experiment": "MTS GI50, Myc-dependent panel", "format": "cell-based", "settings": "Homo sapiens, THP-1, 72 h", "experimental": "as §2, §1"}, "[17]": {"test_system": "CHLA-99", "experiment": "MTS GI50, Myc-dependent panel", "format": "cell-based", "settings": "72 h", "experimental": "as §2, §1"}, "[18]": {"test_system": "AMO-1", "experiment": "MTS GI50, Myc-dependent panel", "format": "cell-based", "settings": "Homo sapiens, AMO1, 72 h", "experimental": "as §2, §1"}, "[19]": {"test_system": "TC-71", "experiment": "MTS GI50, Myc-dependent panel", "format": "cell-based", "settings": "TC-71, 72 h", "experimental": "as §2, §1"}, "[20]": {"test_system": "TC-106", "experiment": "MTS GI50, Myc-dependent panel", "format": "cell-based", "settings": "72 h", "experimental": "as §2, §1"}, "[21]": {"test_system": "ARD", "experiment": "MTS GI50, Myc-dependent panel", "format": "cell-based", "settings": "72 h", "experimental": "as §2, §1"}, "[22]": {"test_system": "RS4;11", "experiment": "MTS GI50, Myc-dependent panel", "format": "cell-based", "settings": "Homo sapiens, RS4-11, 72 h", "experimental": "as §2, §1"}, "[23]": {"test_system": "CCRF-CRM", "experiment": "MTS GI50, Myc-dependent panel", "format": "cell-based", "settings": "72 h", "experimental": "as §2, §1"}, "[24]": {"test_system": "Kasumi-1", "experiment": "MTS GI50, Myc-dependent panel", "format": "cell-based", "settings": "Homo sapiens, Kasumi 1, 72 h", "experimental": "as §2, §1"}, "[25]": {"test_system": "MCF-7", "experiment": "MTS GI50, Myc-dependent panel", "format": "cell-based", "settings": "Homo sapiens, MCF7, 72 h", "experimental": "as §2, §1"}, "[26]": {"test_system": "K-562", "experiment": "MTS GI50, Myc-dependent panel", "format": "cell-based", "settings": "Homo sapiens, K562, 72 h", "experimental": "as §2, §1"}, "[27]": {"test_system": "HL-60", "experiment": "MTS GI50, Myc-dependent panel", "format": "cell-based", "settings": "Homo sapiens, HL-60, 72 h", "experimental": "as §2, §1"}, "[28]": {"test_system": "RD-ES", "experiment": "MTS GI50, Myc-dependent panel", "format": "cell-based", "settings": "72 h", "experimental": "as §2, §1"}, "[29]": {"target": "3′-TAMRA-labeled MycG4 DNA", "experiment": "Fluorescence binding assay", "settings": "20° C., 100 mM K+ buffer, pH 7.0; read-out: Apparent Binding Affinity Kd, app"}}, "data": [{"compound": "COc1cc2c3c(n(CCCN4CCCC4)c(=O)c2cc1OC)-c1nc2c(cc1C3=O)OCO2", "note": "[G108, 2,3-Dimethoxy-6-(3-(pyrrolidin-1-yl)propyl)-5H-[1,3]dioxolo[4″,5″:5′,6′]pyrido[3′,2′:4,5]cyclopenta[1,2-c]isoquinoline-5,12(6H)-dione]", "values": [{"measurement": "IC50", "setting": "[1]; RAJI", "result": 1.71, "unit": "µM"}, {"measurement": "inhibition of DNA relegation (Top1 poison effect)", "setting": "[2]", "result": "minimal effects on DNA relegation"}, {"measurement": "Myc protein level (Western blot)", "setting": "[3]", "result": "weak Myc downregulation"}]}, {"compound": "CC(=O)N1CCN(c2ccc(OCC3COC(Cn4ccnc4)(c4ccc(Cl)cc4Cl)O3)cc2)CC1", "note": "(centres unmarked) [Ketoconazole]", "values": [{"measurement": "% Stability at 6 hrs", "setting": "[4]", "result": 104.96, "unit": "%"}, {"measurement": "% Recovery", "setting": "[5]", "result": 107.45, "unit": "%"}, {"measurement": "% Bound", "setting": "[5]; 1 μM, 6 h dialysis", "result": 98.01, "unit": "%"}, {"measurement": "% Stability at 6 hrs", "setting": "[6]", "result": 88.82, "unit": "%"}, {"measurement": "% Recovery", "setting": "[7]", "result": 93.23, "unit": "%"}, {"measurement": "% Bound", "setting": "[7]; 1 μM, 6 h dialysis", "result": 99.26, "unit": "%"}]}, {"compound": "COc1cc2c3c(n(CCCNCCO)c(=O)c2cc1OC)-c1cc2c(cc1C3=O)OCO2", "note": "[LMP517]", "values": [{"measurement": "IC50", "setting": "[1]; Homo sapiens, Raji", "result": 0.053, "unit": "µM"}, {"measurement": "GI50", "setting": "[8]", "result": 0.042, "unit": "µM"}, {"measurement": "GI50", "setting": "[9]", "result": 0.062, "unit": "µM"}, {"measurement": "GI50", "setting": "[10]", "result": 0.037, "unit": "µM"}, {"measurement": "GI50", "setting": "[11]", "result": 0.003, "unit": "µM"}, {"measurement": "GI50", "setting": "[12]", "result": 0.012, "unit": "µM"}, {"measurement": "GI50", "setting": "[13]", "result": 0.319, "unit": "µM"}, {"measurement": "GI50", "setting": "[14]", "result": 0.044, "unit": "µM"}, {"measurement": "GI50", "setting": "[15]", "result": 0.082, "unit": "µM"}, {"measurement": "GI50", "setting": "[16]", "result": 0.093, "unit": "µM"}, {"measurement": "GI50", "setting": "[17]", "result": 0.044, "unit": "µM"}, {"measurement": "GI50", "setting": "[18]", "result": 0.069, "unit": "µM"}, {"measurement": "GI50", "setting": "[19]", "result": 0.058, "unit": "µM"}, {"measurement": "GI50", "setting": "[20]", "result": 0.051, "unit": "µM"}, {"measurement": "GI50", "setting": "[21]", "result": 0.027, "unit": "µM"}, {"measurement": "GI50", "setting": "[22]", "result": 0.007, "unit": "µM"}, {"measurement": "GI50", "setting": "[23]", "result": 0.011, "unit": "µM"}, {"measurement": "GI50", "setting": "[24]", "result": 0.148, "unit": "µM"}, {"measurement": "GI50", "setting": "[25]", "result": 0.418, "unit": "µM"}, {"measurement": "GI50", "setting": "[26]", "result": 0.074, "unit": "µM"}, {"measurement": "GI50", "setting": "[27]", "result": 0.137, "unit": "µM"}, {"measurement": "GI50", "setting": "[28]", "result": 0.009, "unit": "µM"}, {"measurement": "Kd", "setting": "[29]", "result": 0.109, "unit": "µM"}]}]}
